Reference: PubChem BioAssay (NCI)
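Step 1: Grow cells in 96-well plates. Step 2: Expose to compound for 48 hours at 5 concentrations. Step 3: Interpolate endpoints linearly; if unreached, use highest concentration. TGI: total growth inhibition.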

Experiments:
Assay in all cases: NCI-60 cell line screen, 48 h
OVCAR-4 ovarian = test system: OVCAR-4 ovarian
KM12 colon = test system: KM12 colon
OVCAR-3 ovarian = test system: OVCAR-3 ovarian
TK-10 renal = test system: TK-10 renal
M14 melanoma = test system: M14 melanoma
HCT-15 colon = test system: HCT-15 colon
A549 NSCLC = test system: A549 NSCLC
SK-MEL-28 melanoma = test system: SK-MEL-28 melanoma
MDA-MB-435 = test system: MDA-MB-435
SK-MEL-5 melanoma = test system: SK-MEL-5 melanoma
NCI-H23 lung = test system: NCI-H23 lung
SK-OV-3 ovarian = test system: SK-OV-3 ovarian
ACHN renal = test system: ACHN renal
U251 CNS = test system: U251 CNS
786-0 renal = test system: 786-0 renal
SNB-75 CNS = test system: SNB-75 CNS
SF-268 CNS = test system: SF-268 CNS
PC-3 prostate = test system: PC-3 prostate
CCRF-CEM leukemia = test system: CCRF-CEM leukemia
MOLT-4 leukemia = test system: MOLT-4 leukemia
MALME-3M melanoma = test system: MALME-3M melanoma
HOP-92 NSCLC = test system: HOP-92 NSCLC
HCC-2998 colon = test system: HCC-2998 colon
UO-31 renal = test system: UO-31 renal
SK-MEL-2 melanoma = test system: SK-MEL-2 melanoma
DU-145 prostate = test system: DU-145 prostate
K-562 leukemia = test system: K-562 leukemia
SNB-19 CNS = test system: SNB-19 CNS
NCI-H226 lung = test system: NCI-H226 lung
MDA-N = test system: MDA-N
HL-60(TB) leukemia = test system: HL-60(TB) leukemia
OVCAR-5 ovarian = test system: OVCAR-5 ovarian
HT29 colon = test system: HT29 colon
HCT-116 colon = test system: HCT-116 colon
MDA-MB-231 breast = test system: MDA-MB-231 breast
BT-549 breast = test system: BT-549 breast
RPMI-8226 leukemia = test system: RPMI-8226 leukemia
CAKI-1 renal = test system: CAKI-1 renal
T-47D breast = test system: T-47D breast
SW-620 colon = test system: SW-620 colon
OVCAR-8 ovarian = test system: OVCAR-8 ovarian
NCI/ADR-RES ovarian = test system: NCI/ADR-RES ovarian
HS 578T breast = test system: HS 578T breast
A498 renal = test system: A498 renal
UACC-257 melanoma = test system: UACC-257 melanoma
HOP-62 NSCLC = test system: HOP-62 NSCLC
SN12C renal = test system: SN12C renal
EKVX NSCLC = test system: EKVX NSCLC
IGROV1 ovarian = test system: IGROV1 ovarian
SF-295 CNS = test system: SF-295 CNS
RXF 393 renal = test system: RXF 393 renal
NCI-H522 lung = test system: NCI-H522 lung
SR leukemia = test system: SR leukemia
LOX IMVI melanoma = test system: LOX IMVI melanoma
COLO 205 colon = test system: COLO 205 colon
SF-539 CNS = test system: SF-539 CNS
MCF7 breast = test system: MCF7 breast
NCI-H460 lung = test system: NCI-H460 lung
UACC-62 melanoma = test system: UACC-62 melanoma

CN(C)CCOc1ccc2[nH]c(C(=O)N3CC(CCl)c4c3cc(N)c3ccccc43)cc2c1 (stereo not given)
TGI (OVCAR-4 ovarian): 1.18 µM | TGI (KM12 colon): < 0.01 µM | TGI (OVCAR-3 ovarian): < 0.01 µM | TGI (TK-10 renal): > 4.64 µM | TGI (M14 melanoma): > 100 µM | TGI (HCT-15 colon): > 46.9 µM | TGI (A549 NSCLC): 13.2 µM | TGI (SK-MEL-28 melanoma): < 0.01 µM | TGI (MDA-MB-435): < 0.01 µM | TGI (SK-MEL-5 melanoma): < 0.01 µM | TGI (NCI-H23 lung): < 0.01 µM | TGI (SK-OV-3 ovarian): < 0.01 µM | TGI (ACHN renal): < 0.01 µM | TGI (U251 CNS): 1.1 µM | TGI (786-0 renal): < 0.01 µM | TGI (SNB-75 CNS): < 0.215 µM | TGI (SF-268 CNS): > 4.64 µM | TGI (PC-3 prostate): 3.66 µM | TGI (CCRF-CEM leukemia): > 100 µM | TGI (MOLT-4 leukemia): < 0.01 µM | TGI (MALME-3M melanoma): < 0.01 µM | TGI (HOP-92 NSCLC): < 0.01 µM | TGI (HCC-2998 colon): < 0.01 µM | TGI (UO-31 renal): < 0.01 µM | TGI (SK-MEL-2 melanoma): < 0.01 µM | TGI (DU-145 prostate): 0.0525 µM | TGI (K-562 leukemia): > 4.64 µM | TGI (SNB-19 CNS): 0.202 µM | TGI (NCI-H226 lung): < 0.01 µM | TGI (MDA-N): < 0.01 µM | TGI (HL-60(TB) leukemia): > 100 µM | TGI (OVCAR-5 ovarian): > 100 µM | TGI (HT29 colon): 1.71 µM | TGI (HCT-116 colon): 3.63 µM | TGI (MDA-MB-231 breast): > 100 µM | TGI (BT-549 breast): 1.64 µM | TGI (RPMI-8226 leukemia): < 0.01 µM

Cc1c(C#N)c2nnn(-c3ccc(Cl)cc3)c(=O)n2c1-c1ccccc1
TGI (CAKI-1 renal): > 52.3 µM | TGI (OVCAR-4 ovarian): > 59.3 µM | TGI (KM12 colon): 11.6 µM | TGI (OVCAR-3 ovarian): 0.772 µM | TGI (T-47D breast): 45.2 µM | TGI (SW-620 colon): 31.4 µM | TGI (TK-10 renal): 55 µM | TGI (OVCAR-8 ovarian): 11.2 µM | TGI (NCI/ADR-RES ovarian): 16 µM | TGI (M14 melanoma): 14 µM | TGI (HCT-15 colon): 11.9 µM | TGI (A549 NSCLC): > 40.3 µM | TGI (SK-MEL-28 melanoma): > 51.7 µM | TGI (MDA-MB-435): 0.154 µM | TGI (SK-MEL-5 melanoma): 1.3 µM | TGI (NCI-H23 lung): 19.8 µM | TGI (HS 578T breast): > 56.3 µM | TGI (SK-OV-3 ovarian): 30 µM | TGI (ACHN renal): 83.4 µM | TGI (U251 CNS): 3 µM | TGI (786-0 renal): 7.59 µM | TGI (A498 renal): 3.92 µM | TGI (SNB-75 CNS): 39.7 µM | TGI (UACC-257 melanoma): 33.6 µM | TGI (HOP-62 NSCLC): 3.73 µM | TGI (SN12C renal): 3.85 µM | TGI (EKVX NSCLC): 31.3 µM | TGI (SF-268 CNS): 14.8 µM | TGI (PC-3 prostate): 9.12 µM | TGI (IGROV1 ovarian): 16.9 µM | TGI (CCRF-CEM leukemia): > 100 µM | TGI (MOLT-4 leukemia): 42.3 µM | TGI (MALME-3M melanoma): 34.4 µM | TGI (HOP-92 NSCLC): 25.7 µM | TGI (SF-295 CNS): 1.03 µM | TGI (HCC-2998 colon): 0.201 µM | TGI (UO-31 renal): > 51.3 µM | TGI (RXF 393 renal): 3.76 µM | TGI (SK-MEL-2 melanoma): 2.99 µM | TGI (DU-145 prostate): 8.44 µM | TGI (K-562 leukemia): 20.1 µM | TGI (SNB-19 CNS): > 40.5 µM | TGI (NCI-H226 lung): 2.02 µM | TGI (NCI-H522 lung): 0.207 µM | TGI (SR leukemia): > 56.6 µM | TGI (LOX IMVI melanoma): 12.9 µM | TGI (COLO 205 colon): 0.319 µM | TGI (SF-539 CNS): 0.6 µM | TGI (MCF7 breast): 19.5 µM | TGI (NCI-H460 lung): 3.71 µM | TGI (HL-60(TB) leukemia): > 57.3 µM | TGI (OVCAR-5 ovarian): 32.1 µM | TGI (HT29 colon): 0.49 µM | TGI (HCT-116 colon): 10.9 µM | TGI (UACC-62 melanoma): 18.5 µM | TGI (MDA-MB-231 breast): 0.987 µM | TGI (BT-549 breast): 24.9 µM | TGI (RPMI-8226 leukemia): > 30.6 µM
